{
  "source": "paper PMC12074337",
  "about": "“Isolation and Characterization of Earthworm Peptides with Neuroprotective Effects in Parkinson’s Disease Models” (Molecules, 2025)",
  "key": {"[1]": {"biological_target": "T1, PINK1 (Tribolium castaneum, UniProt D6WMX4)", "T1 construct": "made in house", "T1 sequence (D6WMX4 6-570)": "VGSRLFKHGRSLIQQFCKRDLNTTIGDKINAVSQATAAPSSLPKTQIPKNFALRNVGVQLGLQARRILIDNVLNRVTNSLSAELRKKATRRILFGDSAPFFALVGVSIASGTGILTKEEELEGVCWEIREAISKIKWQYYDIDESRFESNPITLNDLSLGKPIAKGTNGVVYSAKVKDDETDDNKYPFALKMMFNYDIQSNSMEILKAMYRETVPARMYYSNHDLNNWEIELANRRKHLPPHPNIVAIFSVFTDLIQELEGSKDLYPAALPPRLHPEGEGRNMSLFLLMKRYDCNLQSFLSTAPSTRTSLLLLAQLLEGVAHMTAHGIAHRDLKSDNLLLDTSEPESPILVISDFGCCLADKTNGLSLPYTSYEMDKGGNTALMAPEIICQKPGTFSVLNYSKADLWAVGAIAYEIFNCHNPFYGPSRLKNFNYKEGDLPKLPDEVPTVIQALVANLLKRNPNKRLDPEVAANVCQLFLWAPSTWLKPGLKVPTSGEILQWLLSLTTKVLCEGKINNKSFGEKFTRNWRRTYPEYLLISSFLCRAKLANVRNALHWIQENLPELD", "assay": "biochemical", "format": "biochemical", "conditions": "for PINK1 agonistic rate: 100 μM", "method": "The earthworms (Lumbricus terrestris) were purchased from Beijing Tongrentang Co., Ltd. (Chengdu, China). They were dried by the supplier through sun-drying and stored at 4 °C. The shelf life is one year. Rasagiline was purchased from Aladdin Biochemical Technology Co., Ltd. (Shanghai, China). Resveratrol was purchased from Pusi Biotechnology Co., Ltd. (Chengdu, China). The SH-SY5Y cells were obtained from the National Collection of Authenticated Cell Cultures (Shanghai, China). […] Dulbecco’s modified Eagle’s medium/Ham’s F-12 (DMEM/F12), fetal bovine serum (FBS), and phosphate-buffered saline (PBS) were purchased from Biological Industries (Kibbutz Beit HaEmek, Israel). Fluorescein diacetate (FDA), propidium iodide (PI) staining and mitochondrial membrane potential test kit (JC-1) were purchased from Beijing Solarbio Science & Technology Co., Ltd. (Beijing, China). Cell Counting Kit-8 (CCK-8) was purchased from Bimake Co., Ltd. (Shanghai, China). PrimeScript RT reagent kit and PerfectStart Green PCR Master Mix were purchased from TransGen Biotech (Beijing, China). […] The Kinase-Lumi™ Luminescent Kinase Assay Kit and ATP Assay Kit were purchased from Beyotime Biotechnology Co., Ltd. (Wuhan, China). The Insect dopamine (DA) ELISA Kit was purchased from Jiangsu Meimian Industrial Co., Ltd. (Yancheng, Jiangsu, China). HPLC-grade methanol was supplied by XLJ (Yunnan, China). Ultrapure water used in the experiment was prepared using a UP water purification (18.25 MΩ) system (Chengdu, China). Unless otherwise specified, chemicals and solvents were purchased from Kelong Chemical Reagents Factory (Chengdu, China).\nThe PINK1 activity assay was conducted with certain modifications based on the described by. Ubiquitin is a potent substrate for PINK1, which catalyzes the phosphorylation of ubiquitin while consuming ATP [33]. During the reaction, the consumption of ATP is associated with PINK1 activity. […] The enzymatic reaction was conducted on a white 96-well plate, with all samples dissolved in a buffer solution containing 50 mM Tris-HCl (pH = 7.5), 0.1 mM EDTA, 10 mM MgCl2, and 4% 2-hydroxy-1-ethanethiol. Subsequently, 10 μL of peptide sample, 10 μL of PINK1 (6.8 μM), 10 μL of ubiquitin (0.002 pg/mL), and 20 μL of ATP (10 μM) were added to the plate for incubation at a temperature of 25 °C for a duration of ten minutes. In addition, the blank control group replaces the peptide with a buffer solution. The resveratrol was employed as a positive control. The amount of ATP consumed was detected using the Kinase-Lumi™ Luminescent Kinase Assay Kit. The PINK1 agonistic rate was calculated by the following equation:(1) PINK1 agonistic rate (%)=(1−A−B/C−D)×100% where A represents the absorbance of the sample group consisting of the sample, PINK1, ubiquitin, and ATP; B represents the absorbance of the sample control group consisting of the sample, PINK1, and ubiquitin; C represents the absorbance of the control group consisting of PINK1, ubiquitin, and ATP; D represents the absorbance of the blank control group consisting of PINK1 and ubiquitin. The EC50 of each peptide was calculated using GraphPad Prism, version 10.0.2 software."}, "[2]": {"test_system": "PINK1^B9 flies", "assay": "Lifespan of PINK1^B9 flies", "format": "in vivo, Drosophila", "conditions": "1 mM in medium, male flies", "quoted_text": "The flies were cultured on a conventional fly medium under controlled conditions of 25 ± 1 °C and 60% relative humidity. The traditional medium for cultivating flies was prepared by boiling 90 g of yeast, 240 g of corn flour, 32 g of agar, 189 g of glucose, and 98 g of sucrose, as well as adding a preservative solution consisting of 25 mL of a 10% methyl-4-hydroxybenzoate in distilled water to make a final volume of 3.5 L. The experimental medium was prepared by supplementing formula 4–24 instant Drosophila medium (Carolina Biological Supply Company, Burlington, NC, USA) with a concentration of 0.1 mM peptide. Male individuals of both wild-type (WT) and PINK1^B9 flies were collected for subsequent experiments.\nThe newly hatched male WT flies and male PINK1^B9 mutants were collected simultaneously, followed by their division into four groups with 4 bottles per group and 40 flies per bottle. The first group was provided with WT flies and fed with formula 4–24 instant drosophila medium. The second group consisted of PINK1^B9 flies and was also fed with formula 4–24 instant drosophila medium. The third group comprised PINK1^B9 flies and received formula 4–24 instant drosophila medium supplemented with 0.1 mM peptide. […] Fresh medium was replaced every 2–3 days, while the number of flies was recorded daily."}, "[3]": {"test_system": "PINK1^B9 flies", "parameters": "method as in PMID 30248358", "conditions": "cited from earlier work"}, "[4]": {"test_system": "MPP^+-damaged SH-SY5Y cells", "assay": "CCK-8 viability, neuroprotection of MPP+-damaged SH-SY5Y cells", "format": "cell-based, human", "conditions": "100 μM", "method": "The SH-SY5Y human neuroblastoma cell line is extensively employed as a prominent cellular model for PD [31]. The neuroprotective effect of earthworm peptides against the MPP^+-damaged SH-SHY5Y cell model was evaluated using the CCK-8 method. First, the SH-SHY5Y cells were cultured in DMEM/F12 medium supplemented with 10% fetal bovine serum (FBS) and 1% penicillin–streptomycin, and they were maintained at a temperature of 37 °C with a CO2 concentration of 5% in a humidified atmosphere. The SH-SHY5Y cells were seeded into 96-well plates at a density of 1 × 10^4 cells per well, followed by incubation at 37 °C for 24 h. Subsequently, the initial medium was carefully aspirated. The peptide samples were dissolved in DMSO to prepare a high-concentration stock solution and then diluted to the required concentration (10, 25, 50, 100, and 150 μM), prepared using a medium, where they were subsequently introduced into the well and incubated at 37 °C for a duration of 2 h. Then, the cells were treated with MPP^+ (2 mM) per well for an additional 24 h. […] Following the completion of the experiment, the 96-well plate was extracted, and the absorbance was measured at 450nm by the […] GO spectrophotometric plate reader (Thermo Scientific, Waltham, MA, USA). The data were analyzed using GraphPad Prism, version 6.0."}, "[5]": {"test_system": "inflammatory enzymes", "conditions": "in vitro and in vivo; cited from earlier work", "from_the_text": "(§1) Earthworm is used in traditional Chinese medicine as an animal-derived remedy. Its protein content and amino acid composition are better than those of fish, cow milk, and soybean meal. […] Moreover, its essential amino acid utilization rate is higher in the body and is more readily assimilated by the human system. Therefore, it is used as a supplement in animal feed and human food. Earthworm has been recorded in the Chinese medical classics of “ ..."}, "[6]": {"test_system": "SH-SY5Y cells", "conditions": "cited from earlier work", "from_the_text": "as §1"}, "[7]": {"biological_target": "PTEN-induced putative kinase 1 (PINK1) (UniProt D6WMX4)"}, "[8]": {"conditions": "ubiquitin substrate, 10 μM ATP, pH 7.5 Tris-HCl, 25 °C, 10 min, residual ATP luminescence, mean ± SD (n = 3)"}},
  "note": "Where two headings read alike, the source gives them in different places. No end group written: not given here.",
  "data": [
    {"molecule": "Oc1ccc(/C=C/c2cc(O)cc(O)c2)cc1", "note": "[Resveratrol, resveratrol]", "values": [
      {"measurement": "PINK1 agonistic rate", "setting": "[1]; [8]", "value": "91.45 ± 0.34", "unit": "%"},
      {"measurement": "EC50", "setting": "[1]; ubiquitin substrate, 10 μM ATP, pH 7.5 Tris-HCl, 25 °C, 10 min, residual ATP luminescence, mean ± SD (n = 3), read-out: EC50, PINK1 agonistic activity", "value": "13.8 ± 0.58", "unit": "µM"},
      {"measurement": "lifespan extension of PINK1^B9 flies", "setting": "[2]", "value": 23.33, "unit": "%"},
      {"measurement": "lifespan of PINK1^B9 flies (in words)", "setting": "[3]; 0.2 mM resveratrol", "value": "no significant effect"},
      {"measurement": "lifespan of PINK1^B9 flies (in words)", "setting": "[3]; 1 mM resveratrol", "value": "effective in extending the lifespan"}
    ]},
    {"molecule": "AGFAGDDAPR [peptide identified from earthworm (Lumbricus terrestris), synthesized by solid phase]", "values": [
      {"measurement": "PINK1 agonistic rate", "setting": "[1]; [8]", "value": "33.45 ± 0.45", "unit": "%"}
    ]},
    {"molecule": "AVFPSIVGR", "values": [
      {"measurement": "EC50", "setting": "[1]", "value": "88.5 ± 0.97", "unit": "µM"},
      {"measurement": "PINK1 agonistic rate", "setting": "[1]; [8]", "value": "50.35 ± 0.72", "unit": "%"},
      {"measurement": "cell viability (restored to)", "setting": "[4]; 2 h pre-incubation, then 2 mM MPP^+ 24 h, 37 °C, CCK-8, absorbance 450 nm, n = 3", "value": 68.77, "unit": "%"}
    ]},
    {"molecule": "GYSFTTTAER", "values": [
      {"measurement": "EC50", "setting": "[1]", "value": "76.8 ± 1.3", "unit": "µM"},
      {"measurement": "PINK1 agonistic rate", "setting": "[1]; [8]", "value": "52.46 ± 0.96", "unit": "%"},
      {"measurement": "cell viability (restored to)", "setting": "[4]; 2 h", "value": 70.08, "unit": "%"}
    ]},
    {"molecule": "ILLIILI [peptide identified from earthworm (Lumbricus terrestris), synthesized by solid phase]", "values": [
      {"measurement": "PINK1 agonistic rate", "setting": "[1]; [8]", "value": "17.16 ± 0.55", "unit": "%"}
    ]},
    {"molecule": "QLICWRRFR [LumA5, lumbricusin analog 5]", "values": [
      {"measurement": "expression of lip-induced inflammatory enzymes", "setting": "[5]", "value": "significantly reduce"},
      {"measurement": "viability of SH-SY5Y cells", "setting": "[6]", "value": "improved"}
    ]},
    {"molecule": "RNRRWCIDQQA [lumbricusin, antimicrobial peptide derived from earthworm]", "values": [
      {"measurement": "apoptosis and decreased viability induced by MPP^+", "setting": "[6]; SH-SY5Y", "value": "inhibits"},
      {"measurement": "SH-SY5Y cell proliferation", "setting": "[6]", "value": "promotes"}
    ]},
    {"molecule": "ILLIILI", "values": [
      {"measurement": "PINK1 agonistic rate (%) at 100 μM peptide; ATP consumed by purified PINK1 with ubiquitin as substrate (Kinase-Lumi luminescent kinase assay)", "setting": "[7]", "value": 17.2, "unit": "%"}
    ]},
    {"molecule": "GYSFTTTAER", "values": [
      {"measurement": "EC50 of PINK1 agonistic activity; ATP consumed by purified PINK1 with ubiquitin as substrate (Kinase-Lumi luminescent kinase assay)", "setting": "[7]", "value": 76.8, "unit": "µM"},
      {"measurement": "PINK1 agonistic rate (%) at 100 μM peptide; ATP consumed by purified PINK1 with ubiquitin as substrate (Kinase-Lumi luminescent kinase assay)", "setting": "[7]", "value": 52.5, "unit": "%"}
    ]},
    {"molecule": "AVFPSIVGR", "values": [
      {"measurement": "EC50 of PINK1 agonistic activity; ATP consumed by purified PINK1 with ubiquitin as substrate (Kinase-Lumi luminescent kinase assay)", "setting": "[7]", "value": 88.5, "unit": "µM"},
      {"measurement": "PINK1 agonistic rate (%) at 100 μM peptide; ATP consumed by purified PINK1 with ubiquitin as substrate (Kinase-Lumi luminescent kinase assay)", "setting": "[7]", "value": 50.4, "unit": "%"}
    ]},
    {"molecule": "AGFAGDDAPR", "values": [
      {"measurement": "PINK1 agonistic rate (%) at 100 μM peptide; ATP consumed by purified PINK1 with ubiquitin as substrate (Kinase-Lumi luminescent kinase assay)", "setting": "[7]", "value": 33.5, "unit": "%"}
    ]}
  ]
}
